Results on six compounds are retold here after patent publication US20240082238A1, “COMPOSITIONS AND METHODS FOR TREATING CANCER” (UNIVERSITY OF IOWA RESEARCH FOUNDATION, priority 2021, published 2024).

Molecules are shown by their SMILES.

The test system of assay [1] is cancer cell lines. As to the kind of experiment: Cytotoxicity (MTS), CIP2b with checkpoint inhibitors. Conditions: AZD7762 50 and 75 nM; MK1775 150 and 250 nM. The assay is classed as cell-based. As for the experimental part: (§1) Cytotoxicity assay. Hec50co cells were seeded at 1500 cells per well in 96-well plates for 24 h in a complete medium. Later, the medium was removed and PTX, CIP2b, or CIP (all dissolved in DMSO and diluted in complete medium) were added to cells as either monotherapies or in combinations, and the plates were incubated for 72 hours. Then, the complete medium was removed and MTS reagent in the complete medium was added to wells, and the plates were incubated for 1-4 hours according to the manufacturer's protocol. Finally, the absorbance was recorded at 490 nm using a Spectra Max plus 384 Microplate Spectrophotometer (Molecular Devices, Sunnyvale, CA). Percentage cell viability was expressed as the average absorbance of the test group relative to that of the control group (untreated cells). The concentration that inhibits proliferation of 50% of cells compared to control (IC50) was calculated using GraphPad Prism (La Jolla, CA). Synergism was detected following the Chou-Talalay method (CI<1 indicates synergism) (Chou T C. Cancer research. 2010; 70(2):440-6, doi: 10.1158/0008-5472.CAN-09-1947) using CompuSyn software (Ver. 1.0).
Cytotoxicity was evaluated using the MTS assay described above.

Assay [2] deals with advanced pancreatic ductal adenocarcinoma (PDAC). Conditions: patients with advanced PDAC; cited from earlier work.
The target in assay [3] is T1, human Topo I (Homo sapiens, UniProt P11387).
T1 construct: purchased TopoGEN Inc. TG1015-1A
T1 sequence (P11387 1-765): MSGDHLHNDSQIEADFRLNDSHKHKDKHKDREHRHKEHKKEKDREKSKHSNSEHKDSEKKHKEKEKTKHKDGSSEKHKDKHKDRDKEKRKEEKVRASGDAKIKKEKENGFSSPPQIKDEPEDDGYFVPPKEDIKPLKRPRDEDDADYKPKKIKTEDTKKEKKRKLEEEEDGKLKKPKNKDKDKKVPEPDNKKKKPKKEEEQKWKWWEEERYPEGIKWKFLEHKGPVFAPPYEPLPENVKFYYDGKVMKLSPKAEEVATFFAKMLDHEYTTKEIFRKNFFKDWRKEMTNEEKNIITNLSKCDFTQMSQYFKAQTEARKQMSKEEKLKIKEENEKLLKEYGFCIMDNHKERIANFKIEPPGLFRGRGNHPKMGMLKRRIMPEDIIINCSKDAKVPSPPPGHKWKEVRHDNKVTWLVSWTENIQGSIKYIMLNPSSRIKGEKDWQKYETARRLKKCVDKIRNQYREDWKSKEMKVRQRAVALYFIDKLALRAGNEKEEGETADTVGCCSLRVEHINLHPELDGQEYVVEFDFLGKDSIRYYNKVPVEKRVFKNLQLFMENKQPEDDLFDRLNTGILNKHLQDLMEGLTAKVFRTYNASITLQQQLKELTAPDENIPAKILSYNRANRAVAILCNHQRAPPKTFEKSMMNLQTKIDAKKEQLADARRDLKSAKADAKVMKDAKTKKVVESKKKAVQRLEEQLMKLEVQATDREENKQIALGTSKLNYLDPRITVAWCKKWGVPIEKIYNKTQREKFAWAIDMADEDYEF
The experiment in a line: Topoisomerase I inhibition assay (plasmid-based). The assay is classed as biochemical. Particulars: drug final concentration 100 μM. How it is done:
Topoisomerase I inhibition assay. A plasmid-based Topo I assay (Cat. No. TG1015-1A, TopoGEN Inc., Buena Vista, CO) was performed according to the manufacturer's instructions. Briefly, 1 μL of the test compounds (PTX, CIP, CIP2b, or CAM) at a concentration of 2 mM, was mixed with 2 μL of the reaction buffer (10× tris-glycine-SDS), and deionized water was added to make 18 μL solution. This was followed by adding 1 μL of supercoiled DNA (SC DNA) and 1 μL of human Topo I (10 U/μL) (drug final concentration was 100 μM). Also, SC DNA±Topo I was used as a control (i.e., not containing drugs). In addition, relaxed DNA was added as another control in this assay. Samples were incubated on a heating block (Isotemp 125 D Digital Heat Block, ThermoFisher Scientific) set at 37° C. for 30 minutes. Then, the reaction was stopped by adding a 5× stop buffer. Samples were then loaded directly into the wells of a 1% agarose gel (Research Products International, Mount Prospect, IL). The gel was run at 150 V until the dye front had traveled approximately 5 cm (run time was approximately 2 hours). The gel was then stained with 1 μg/mL ethidium bromide in deionized water for 15 minutes, and this was followed by de-staining (washing) with deionized water for 30 min before imaging. The image was then taken using an Invitrogen iBright CL 1500 Imaging System (ThermoFisher Scientific). The intensity of the final bands in the gel was quantified using ImageJ, and the results are expressed as the percentage of Topo I inhibition.

Assay [4] relates to Hec50co cells. The experiment in a line: Cytotoxicity assay (MTS), Hec50co cells. The assay is classed as cell-based, human. Conditions: 10 μM CIP added to PTX, 72 h. As for the experimental part:
as §1, with “1.0). […]” for “1.0).”

In assay [5] the target is T2, human Topo IIα (Homo sapiens, UniProt P11388).
T2 construct: purchased TopoGEN Inc. TG1001-1A
T2 sequence (P11388 whole entry): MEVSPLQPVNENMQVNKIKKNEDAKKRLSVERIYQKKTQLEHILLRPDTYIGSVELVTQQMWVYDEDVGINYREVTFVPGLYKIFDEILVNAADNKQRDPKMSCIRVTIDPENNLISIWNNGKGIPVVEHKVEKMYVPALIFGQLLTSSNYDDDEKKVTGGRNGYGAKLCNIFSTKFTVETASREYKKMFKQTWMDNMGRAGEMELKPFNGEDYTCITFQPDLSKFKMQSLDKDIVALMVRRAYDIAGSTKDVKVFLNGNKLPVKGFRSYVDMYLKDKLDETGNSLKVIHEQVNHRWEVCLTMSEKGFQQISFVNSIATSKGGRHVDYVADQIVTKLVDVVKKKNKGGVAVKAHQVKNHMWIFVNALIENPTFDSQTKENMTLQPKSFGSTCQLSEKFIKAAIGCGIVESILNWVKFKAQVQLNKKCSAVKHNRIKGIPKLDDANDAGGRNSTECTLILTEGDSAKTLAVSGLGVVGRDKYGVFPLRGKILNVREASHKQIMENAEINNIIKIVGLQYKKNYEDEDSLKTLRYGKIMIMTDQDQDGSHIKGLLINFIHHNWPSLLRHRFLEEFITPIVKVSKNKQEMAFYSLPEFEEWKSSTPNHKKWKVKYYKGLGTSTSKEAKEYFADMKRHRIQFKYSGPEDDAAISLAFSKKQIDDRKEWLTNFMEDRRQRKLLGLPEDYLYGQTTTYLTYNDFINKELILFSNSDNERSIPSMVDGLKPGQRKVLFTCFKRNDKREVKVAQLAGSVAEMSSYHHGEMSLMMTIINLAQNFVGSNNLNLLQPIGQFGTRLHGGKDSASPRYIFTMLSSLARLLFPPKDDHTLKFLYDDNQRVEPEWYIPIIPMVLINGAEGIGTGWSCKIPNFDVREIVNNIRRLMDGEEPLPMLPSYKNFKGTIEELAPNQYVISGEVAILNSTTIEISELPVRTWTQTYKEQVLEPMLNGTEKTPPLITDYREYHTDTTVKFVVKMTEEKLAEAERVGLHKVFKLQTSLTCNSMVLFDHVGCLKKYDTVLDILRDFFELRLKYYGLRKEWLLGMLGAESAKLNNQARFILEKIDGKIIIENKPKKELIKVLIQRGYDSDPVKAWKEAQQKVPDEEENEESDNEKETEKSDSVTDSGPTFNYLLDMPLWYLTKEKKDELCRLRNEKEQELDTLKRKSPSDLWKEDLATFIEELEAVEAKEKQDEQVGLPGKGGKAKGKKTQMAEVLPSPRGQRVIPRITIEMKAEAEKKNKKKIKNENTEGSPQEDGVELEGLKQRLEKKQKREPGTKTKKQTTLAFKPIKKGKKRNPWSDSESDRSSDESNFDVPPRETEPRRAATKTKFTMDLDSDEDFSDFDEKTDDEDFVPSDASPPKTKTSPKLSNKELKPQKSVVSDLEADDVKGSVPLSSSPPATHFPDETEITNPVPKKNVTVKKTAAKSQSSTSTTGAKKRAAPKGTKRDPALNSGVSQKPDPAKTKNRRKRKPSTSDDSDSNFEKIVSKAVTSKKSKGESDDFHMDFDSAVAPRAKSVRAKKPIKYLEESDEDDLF
The experiment in a line: Topoisomerase II inhibition assay (plasmid-based). The assay is classed as biochemical. Conditions: drug final concentration 100 μM; read-out: percentage of Topo II inhibition. How it is done: Topoisomerase II inhibition assay. A plasmid-based Topo II assay (Cat. No. TG1001-1A, TopoGEN Inc., Buena Vista, CO) was performed according to the manufacturer's instructions. In this experiment, 1 μL of tested compounds (PTX, CIP, CIP2b, ETO) at a concentration of 2 mM was mixed with 4 μL of the reaction buffer (mixture of buffer A (0.5 M Tris-HCl (pH 8), 1.50 M NaCl, 100 mM MgCl2, 5 mM Dithiothreitol, 300 μg BSA/mL) and buffer B (10× ATP Buffer), and deionized water was added to make 18 μL solution. This was followed by adding 1 μL of catenated DNA and 1 μL of human Topo IIα (8 U/μL) (drug final concentration was 100 μM). Additionally, decatenated DNA (De-CT DNA) and catenated DNA (CT DNA)±Topo II were used as a control (i.e., not containing drugs). Moreover, relaxed DNA was added as another control in this assay. Similar to Topo I assay, samples were then incubated on a heating block set at 37° C. for 30 minutes. Then, the reaction was stopped by the addition of a 5× stop buffer. Samples were then loaded directly into the wells of a 1% agarose gel containing 1 μg/mL ethidium bromide. The gel was run at 150 V until the dye front had traveled approximately 5 cm (run time was approximately 2 h). The gel was then washed with deionized water for 30 minutes before imaging. The image was taken using an Invitrogen iBright CL1500 Imaging System. The intensity of the final bands in the gel was quantified using ImageJ, and the results are expressed as the percentage of Topo II inhibition.

Consider `NC(=O)Nc1cc(-c2cccc(F)c2)sc1C(=O)N[C@H]1CCCNC1` [AZD7762], for which, in assay [1], the “potentiation or synergism in combination with CIP2b” value was “did not show any noticeable potentiation or synergism”. The same measure, in the same setting: next, `C=CCn1c(=O)c2cnc(Nc3ccc(N4CCN(C)CC4)cc3)nc2n1-c1cccc(C(C)(C)O)n1` [MK1775, adavosertib]: “did not show any noticeable potentiation or synergism”. Consider `Nc1ccn([C@@H]2O[C@H](CO)[C@@H](O)C2(F)F)c(=O)n1` [gemcitabine], for which the median survival in assay [2] is 6.7-6.8 months. `CC[C@@]1(O)C(=O)OCc2c1cc1n(c2=O)Cc2cc3ccccc3nc2-1` [CAM, camptothecin]: in assay [3], the “Topo I inhibitory activity (gel)” value is “potent inhibitor of Topo I”. Consider `O=C(O)c1cn(C2CC2)c2cc(N3CCNCC3)c(F)cc2c1=O` [CIP, ciprofloxacin], for which the “survival curve of PTX with added compound vs PTX alone” value in assay [4] is “superimposed”. Moreover, the “Topo I inhibitory activity (gel)” value in assay [3] is reported as “neither PTX nor CIP did inhibit Topo I”. For the same compound, the inhibition at 100 µM in assay [5] worked out at 62%. Turning to `COc1cc([C@@H]2c3cc4c(cc3[C@@H](O[C@@H]3O[C@@H]5CO[C@@H](C)O[C@H]5[C@H](O)[C@H]3O)[C@H]3COC(=O)[C@H]23)OCO4)cc(OC)c1O` [ETO, etoposide], the inhibition at 100 µM in assay [5] is roughly 96%.

One may read the inhibition as the relative decrease from the control value, in per cent.
